Assay results published in patent EP3062762B1, “STABLE SOLUTIONS CONTAINING A PHYSIOLOGICAL COOLING REAGENT AND USE THEREOF” (priority 2013, dated 2015).
Where two headings read alike, the source gives them in different places.

Legend:
[1] = Miscibility with water and lipophilic cosmetic solvents (Neutralöl, Paraffinöl); format: physicochemical; settings: for Löslichkeit + Neutralöl auf: 2,5 g: 0,1 g PKR made up with Neutralöl to 2,5 g; for Löslichkeit + Neutralöl auf: 5 g: 0,1 g PKR made up with Neutralöl to 5 g; for Löslichkeit + Neutralöl auf: 10 g: 0,1 g PKR made up with Neutralöl to 10 g; for Löslichkeit + Paraffinöl auf: 5 g: 0,1 g PKR made up with Paraffinöl to 5 g; for Löslichkeit + Paraffinöl auf: 10 g: 0,1 g PKR made up with Paraffinöl to 10 g; for Löslichkeit + Wasser auf: 10 g: 0,1 g PKR made up with water to 10 g; for Löslichkeit + Wasser auf: 20 g: 0,1 g PKR made up with water to 20 g; as to Löslichkeit + Neutralöl auf: 10 g: key: +: klare Lösung; -: Zweiphasengemisch; as to Löslichkeit + Neutralöl auf: 2,5 g: key: +: klare Lösung; -: Zweiphasengemisch; as to Löslichkeit + Neutralöl auf: 5 g: key: +: klare Lösung; -: Zweiphasengemisch
From the text: Mischungen aus 40 Gew.-% Kühlreagenz (a) und jeweils 60 bzw. 50 Gew.-% Alkohol (b) wurden gemäß Beispiel 1 erzeugt bzw. mit 10 Gew.-% Wasser versetzt.
Anschließend wurde alternativ mit Wasser, Neutralöl oder Paraffinöl versetzt.

[2] = cited from earlier work
[3] = octanol/water; cited from earlier work

CNC(=O)C(C)(C(C)C)C(C)C [WS-23, 2-Isopropyl-N,2,3-trimethylbutanamid]
Löslichkeit + Neutralöl auf: 2,5 g ([1]; Lagertemperatur 8 °C): +
Löslichkeit + Neutralöl auf: 2,5 g ([1]; Lagertemperatur 20 °C): +
Löslichkeit + Neutralöl auf: 5 g ([1]; Lagertemperatur 8 °C): +
Löslichkeit + Neutralöl auf: 5 g ([1]; Lagertemperatur 20 °C): +
Löslichkeit + Neutralöl auf: 10 g ([1]; Lagertemperatur 8 °C): +
Löslichkeit + Neutralöl auf: 10 g ([1]; Lagertemperatur 20 °C): +
Löslichkeit + Paraffinöl auf: 5 g ([1]; Lagertemperatur 8 °C): -
Löslichkeit + Paraffinöl auf: 5 g ([1]; Lagertemperatur 20 °C): -
Löslichkeit + Paraffinöl auf: 10 g ([1]; Lagertemperatur 8 °C): -
Löslichkeit + Paraffinöl auf: 10 g ([1]; Lagertemperatur 20 °C): -
Löslichkeit + Wasser auf: 10 g ([1]; Lagertemperatur 8 °C): -
Löslichkeit + Wasser auf: 10 g ([1]; Lagertemperatur 20 °C): -
Löslichkeit + Wasser auf: 20 g ([1]; Lagertemperatur 8 °C): -
Löslichkeit + Wasser auf: 20 g ([1]; Lagertemperatur 20 °C): +
Löslichkeit in Wasser ([2]; bei 20 °C): ca. 0,5 g/L

CC(C)[C@@H]1CC[C@@H](C)C[C@H]1O [L-Menthol]
Löslichkeit + Neutralöl auf: 2,5 g ([1]; Lagertemperatur 8 °C): +
Löslichkeit + Neutralöl auf: 2,5 g ([1]; Lagertemperatur 20 °C): +
Löslichkeit + Neutralöl auf: 5 g ([1]; Lagertemperatur 8 °C): +
Löslichkeit + Neutralöl auf: 5 g ([1]; Lagertemperatur 20 °C): +
Löslichkeit + Neutralöl auf: 10 g ([1]; Lagertemperatur 8 °C): +
Löslichkeit + Neutralöl auf: 10 g ([1]; Lagertemperatur 20 °C): +
Löslichkeit + Paraffinöl auf: 5 g ([1]; Lagertemperatur 8 °C): +
Löslichkeit + Paraffinöl auf: 5 g ([1]; Lagertemperatur 20 °C): +
Löslichkeit + Paraffinöl auf: 10 g ([1]; Lagertemperatur 8 °C): +
Löslichkeit + Paraffinöl auf: 10 g ([1]; Lagertemperatur 20 °C): +
Löslichkeit + Wasser auf: 10 g ([1]; Lagertemperatur 8 °C): -
Löslichkeit + Wasser auf: 10 g ([1]; Lagertemperatur 20 °C): -
Löslichkeit + Wasser auf: 20 g ([1]; Lagertemperatur 8 °C): -
Löslichkeit + Wasser auf: 20 g ([1]; Lagertemperatur 20 °C): -
Löslichkeit in Wasser ([2]; water): 0,355 g/L

CC(O)CO (stereo not shown) [1,2-Propandiol]
log Kow [3]: -0,90
